Data: patent US7943657B2, “Imidoalkanpercarboxylic acids” (Solvay Solexis S.p.A., priority 2002, dated 2011)

Experiments:
[1] = Dissolution time of crystalline PAP dispersed in standard detergent solution (HPLC); assay type: physicochemical; settings: listed as crystals of PAP in beta form
Description: Successive samples of liquid phase, carefully filtered on filter of 0.45 micron, are drawn and the PAP concentration in solution is determined by HPLC.
Said times are determined by drawing some curves reporting in ordinate the PAP concentration dissolved in the aqueous phase (determined by HPLC) and in abscissae the sample drawing time, taking as 100% the PAP concentration asymptotically obtained at infinite time.
The previous test is repeated by dispersing 70 mg of anhydrous crystalline PAP (base 100%), respectively of crystals and microcrystals (sizes lower than 10 micron) of PAP in beta form, obtained as from Examples 2B and 2A respectively, in one liter of aqueous solution, prepared as above, stirred and thermostated at the temperature of 25° C.
Successive samples of liquid phase, carefully filtered on filter of 0.45 micron, are drawn, and the PAP concentration in solution is determined by HPLC.

[2] = Phase separation and sedimentation of 5% aqueous PAP dispersion at rest in graduated cylinder; assay type: physicochemical; settings: 5% by weight PAP dispersion, rest at room temperature
Description: In a beaker immersed in a thermostatic bath an aqueous dispersion of alpha crystalline PAP in demineralized water at 5% by weight of PAP is prepared, by adding to 473.5 ml of demineralized water at the temperature of 50° C., kept under stirring with an anchor and a magnetic stirrer, 500 ppm of antifoam DB 100 and 1,000 ppm of surfactant Hostapur® SAS and 26.50 g of crystalline PAP in alpha form, of technical degree (titre: 94.3%) having average sizes higher than 100 micron. After 10 minutes of stirring at 50° C., the beaker is removed from the thermostatic bath and the aqueous suspension is transferred in a graduated cylinder. It is let rest at room temperature in the graduated cylinder.
An aqueous dispersion of crystalline PAP in demineralized water at 5% by weight of PAP is prepared, as described in Example 2A, by adding to 471.9 ml of demineralized water 500 ppm of antifoam DB 100 and 1000 ppm of surfactant Hostapur® SAS and 28.1 g of crystalline PAP in beta form of technical degree (titre: 89%), having average sizes higher than 100 micron, in particular 80% of the particles being comprised between 100 and 200 micron. After 10 minutes of stirring at 50° C., the beaker is removed and the suspension is transferred into a graduated cylinder, as in Example 2A. […] The separation of the supernatant aqueous phase increases after 2 hours to more than 70% of the total volume.

Q: Which “necessary time for the dissolution of 90% of the crystalline PAP initially dispersed” value ([1]; 70 mg PAP in 1 liter water 10° F. hardness + 1.70 g detergent IEC type B, 25° C.) does the source give for `O=C(CCCCCN1C(=O)c2ccccc2C1=O)OO` [Example 2B, ε-phthalimido-peroxyhexanoic acid] here?
A: Its value is 60 min.

Q: And the “necessary time for the dissolution of 90% of the crystalline PAP initially dispersed” value ([1]; 100 mg PAP in 1 liter water 10° F. hardness + 1.70 g detergent IEC type B, 40° C.)?
A: The value was 30 min.

Q: And the “separation of supernatant aqueous phase” value ([2]; after 10 minutes)?
A: The value was 60 % of the total volume.

Q: And the “separation of supernatant aqueous phase” value ([2]; after 2 hours)?
A: Its value is “more than 70 % of the total volume”.

Q: And the “solid phase thickening / sedimentation on the cylinder bottom” value ([2]; 2A after two hours and 48 hours, 2B after 10 minutes)?
A: Its value is “sedimentation of a precipitate on the bottom”.
